Source: patent US20260226086A1, “COMPOUNDS AND COMPOSITIONS AS STAT3 DEGRADERS AND USES THEREOF” (REGENTS OF THE UNIVERSITY OF MICHIGAN, priority 2023, published 2026)

Tests used:
Assay type in all cases: cell-based
STAT3 = molecular target: T1, STAT3 (Homo sapiens, UniProt P40763); assay: HiBiT assay, STAT3 degradation in STAT3-HiBiT KI HeLa cells; conditions: for Dmax at 1 µM / DC50: 24 h; for DC50: read-out: STAT3 Degradation (HeLa 24 h HiBit) DC50
T1 construct: This cell line is a clone created by using CRISPR-Cas9 to fuse HiBiT to the 3′ end of STAT3 in HeLa cells; host or cells: STAT3-HiBiT KI HeLa cell line (CRISPR-Cas9 knock-in clone)
T1 sequence (P40763 whole entry): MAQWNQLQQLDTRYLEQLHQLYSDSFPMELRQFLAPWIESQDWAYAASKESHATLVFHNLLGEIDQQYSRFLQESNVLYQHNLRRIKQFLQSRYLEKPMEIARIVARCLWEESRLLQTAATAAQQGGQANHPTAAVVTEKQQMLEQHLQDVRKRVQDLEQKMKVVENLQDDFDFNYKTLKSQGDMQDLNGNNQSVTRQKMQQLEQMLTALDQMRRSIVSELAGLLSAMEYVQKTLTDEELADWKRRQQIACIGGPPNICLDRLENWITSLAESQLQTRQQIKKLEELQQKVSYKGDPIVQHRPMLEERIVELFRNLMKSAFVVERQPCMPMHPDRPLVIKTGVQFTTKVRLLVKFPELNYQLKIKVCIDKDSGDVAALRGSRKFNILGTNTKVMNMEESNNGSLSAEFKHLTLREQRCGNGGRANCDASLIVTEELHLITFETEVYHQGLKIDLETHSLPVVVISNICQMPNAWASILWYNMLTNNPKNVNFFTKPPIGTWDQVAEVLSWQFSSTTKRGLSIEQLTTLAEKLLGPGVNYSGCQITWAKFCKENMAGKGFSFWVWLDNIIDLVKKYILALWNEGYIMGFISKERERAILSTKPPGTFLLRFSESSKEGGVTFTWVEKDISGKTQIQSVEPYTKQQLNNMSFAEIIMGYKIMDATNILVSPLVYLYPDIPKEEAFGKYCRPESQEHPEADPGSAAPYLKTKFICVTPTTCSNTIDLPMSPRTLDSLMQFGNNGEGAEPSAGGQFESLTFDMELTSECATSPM
Description: STAT3 degradation may be determined by HiBiT assay. STAT3-HiBiT KI HeLa cell line, which is a clone created by using CRTISPR-Cas9 to fuse HiBiT to the 3′ end of STAT3 in HeLa cells, may be used for this assay. In a typical procedure, cells seeded at certain amounts of cells (e.g., 20000 cells) per well are incubated with serially diluted compounds for certain period of time (e.g., 24 hours) under certain conditions (e.g., at 37° C. with 5% CO2). At the end of treatment, Nano-Glo HiBiT Lytic Detection reagents is added to the wells and luminescence is acquired on TECAN SPARK plate reader. Untreated cells are used as control. Data points are fit with a four-parameter equation to generate a concentration-response curve. IC50 values are calculated using a nonlinear regression analysis of the mean±SD from triplicate.
STAT3-HiBiT KI HeLa cell line was purchased from Promega. This cell line is a clone created by using CRISPR-Cas9 to fuse HiBiT to the 3′ end of STAT3 in HeLa cells. DMEM medium and FBS were purchased from Gibco/Thermo Fisher Scientific. STAT3 degradation was determined based on quantification of luminescent signal using Nano-Glo HiBiT Lytic Detection System. In a typical procedure, cells seeded at 20000 cells per well in 96-well white plates (Corning) were incubated with serially diluted compounds for 24 hours at 37° C. with 5% CO2. At the end of treatment, Nano-Glo HiBiT Lytic Detection reagents was added to the wells and luminescence was acquired on TECAN SPARK plate reader. Untreated cells were used as control. Data points were fit with a four-parameter equation to generate a concentration-response curve. IC50 values were calculated using a nonlinear regression analysis of the mean±SD from triplicate.

SU-DHL-1 cells = assay: CellTiter-Glo 2.0 cell viability assay, SU-DHL-1; conditions: Homo sapiens, 96 h, 4 days
Description: (§1) For example, cell viability may be determined by CellTiter-Glo 2.0 Cell Viability Assay. In a typical procedure, cells seeded at certain amounts of cells (e.g., 1000 cells) per well are incubated with serially diluted compounds for certain period (e.g., 4 days) under certain conditions (e.g., at 37° C. with 5% CO2). At the end of treatment, CellTiter-Glo 2.0 is added to the wells and luminescence is acquired on TECAN SPARK plate reader. Untreated cells are used as control, Data points are fit with an equation (e.g., a four-parameter equation) to generate a concentration-response curve. IC50 values are calculated using a nonlinear regression analysis of the mean±SD from triplicate.
(§2) SU-DHL-1 and SUP-M2 cell viability was determined by CellTiter-Glo 2.0 Cell Viability Assay (Promega). SU-DHL-1 cell line was purchased from ATCC (Manassas, VA) and SUP-M2 (ACC-509) was purchased from DSMZ (Germany). RPMI 1640 medium and fetal bovine serum (FBS) were purchased from Gibco/Thermo Fisher Scientific. In a typical procedure, cells seeded at 1000 cells per well in 384-well white plates (Corning) were incubated with serially diluted compounds for 4 days at 37° C. with 5% C02. At the end of treatment, CellTiter-Glo 2.0 was added to the wells and luminescence was acquired on TECAN SPARK plate reader. Untreated cells were used as control. Data points were fit with a four-parameter equation to generate a concentration-response curve. IC50 values were calculated using a nonlinear regression analysis of the mean±SD from triplicate.

SUP-M2 cells = assay: CellTiter-Glo 2.0 cell viability assay, SUP-M2; conditions: SUP-M2, 96 h, 4 days
Description: as §1, §2

Row | Compound | Dmax at 1 µM (STAT3) [%] | DC50 (STAT3) [nM] | IC50 (SU-DHL-1 cells) [nM] | IC50 (SUP-M2 cells) [nM] | STAT3 Degradation (HeLa 24 h HiBit) Dmax (@1 μM) (STAT3)
1 | CC(=O)N1CC[C@H]2CC[C@@H](C(=O)N[C@@H](CCC(N)=O)COc3cccc(CCCc4cn([C@H](C(=O)N5C[C@H](O)C[C@H]5C(=O)N[C@@H](C)c5ccc(-c6scnc6C)cc5)C(C)(C)C)nn4)c3Cl)N2C(=O)[C@@H](NC(=O)c2cc3cc(C(=O)P(=O)(O)O)ccc3[nH]2)C1 [Compound 1, (2-(((5S,8S,10aR)-3-acetyl-8-(((S)-5-amino-1-(2-chloro-3-(3-(1-((S)-1-((2S,4R)-4-hydroxy-2-(((S)-1-(4-(4-methylthiazol-5-yl)phenyl)ethyl)carbamoyl)pyrrolidin-1-yl)-3,3-dimethyl-1-oxobutan-2-yl)-1H-1,2,3-triazol-4-yl)propyl)phenoxy)-5-oxopentan-2-yl)carbamoyl)-6-oxodecahydropyrrolo[1,2-a][1,5]diazocin-5-yl)carbamoyl)-1H-indole-5-carbonyl)phosphonic acid] | > 80 | < 10 | < 10 | < 10 | –
2 | Cc1ncsc1-c1ccc([C@H](C)NC(=O)[C@@H]2C[C@@H](O)CN2C(=O)[C@@H](n2cc(CCCc3cccc(OC[C@H](CCC(N)=O)NC(=O)[C@@H]4CC[C@@H]5CCN(C(=O)C(C)C)C[C@H](NC(=O)c6cc7cc(C(=O)P(=O)(O)O)ccc7[nH]6)C(=O)N54)c3Cl)nn2)C(C)(C)C)cc1 [Compound 2, (2-(((5S,8S,10aR)-8-(((S)-5-amino-1-(2-chloro-3-(3-(1-((S)-1-((2S,4R)-4-hydroxy-2-(((S)-1-(4-(4-methylthiazol-5-yl)phenyl)ethyl)carbamoyl)pyrrolidin-1-yl)-3,3-dimethyl-1-oxobutan-2-yl)-1H-1,2,3-triazol-4-yl)propyl)phenoxy)-5-oxopentan-2-yl)carbamoyl)-3-isobutyryl-6-oxodecahydropyrrolo[1,2-a][1,5]diazocin-5-yl)carbamoyl)-1H-indole-5-carbonyl)phosphonic acid] | > 80 | < 10 | < 10 | < 10 | –
3 | Cc1ncsc1-c1ccc([C@H](C)NC(=O)[C@@H]2C[C@@H](O)CN2C(=O)[C@@H](n2cc(CCc3cccc(OC[C@H](CCC(N)=O)NC(=O)[C@@H]4CC[C@@H]5CCN(C(=O)C(C)C)C[C@H](NC(=O)c6cc7cc(C(=O)P(=O)(O)O)ccc7[nH]6)C(=O)N54)c3Cl)nn2)C(C)(C)C)cc1 [Compound 3, (2-(((5S,8S,10aR)-8-(((S)-5-amino-1-(2-chloro-3-(2-(1-((S)-1-((2S,4R)-4-hydroxy-2-(((S)-1-(4-(4-methylthiazol-5-yl)phenyl)ethyl)carbamoyl)pyrrolidin-1-yl)-3,3-dimethyl-1-oxobutan-2-yl)-1H-1,2,3-triazol-4-yl)ethyl)phenoxy)-5-oxopentan-2-yl)carbamoyl)-3-isobutyryl-6-oxodecahydropyrrolo[1,2-a][1,5]diazocin-5-yl)carbamoyl)-1H-indole-5-carbonyl)phosphonic acid] | > 80 | 10 to 100 | 10 to 100 | 10 to 100 | –
4 | CC(=O)N1CC[C@H]2CC[C@@H](C(=O)N[C@@H](CCC(N)=O)COc3cccc(CCCc4cn([C@H](C(=O)N5C[C@H](O)C[C@H]5C(=O)N[C@@H](CCN5CCOCC5)c5ccc(-c6scnc6C)cc5)C(C)(C)C)nn4)c3Cl)N2C(=O)[C@@H](NC(=O)c2cc3cc(C(=O)P(=O)(O)O)ccc3[nH]2)C1 [Compound 4, (2-(((5S,8S,10aR)-3-acetyl-8-(((S)-5-amino-1-(2-chloro-3-(3-(1-((S)-1-((2S,4R)-4-hydroxy-2-(((S)-1-(4-(4-methylthiazol-5-yl)phenyl)-3-morpholinopropyl)carbamoyl)pyrrolidin-1-yl)-3,3-dimethyl-1-oxobutan-2-yl)-1H-1,2,3-triazol-4-yl)propyl)phenoxy)-5-oxopentan-2-yl)carbamoyl)-6-oxodecahydropyrrolo[1,2-a][1,5]diazocin-5-yl)carbamoyl)-1H-indole-5-carbonyl)phosphonic acid] | > 80 | 10 to 100 | 10 to 100 | 10 to 100 | –
5 | CC(=O)N1CC[C@H]2CC[C@@H](C(=O)N[C@@H](CCC(N)=O)COc3cccc(CCCc4cn([C@H](C(=O)N5C[C@H](O)C[C@H]5C(=O)N[C@@H](CN5CCOCC5)c5ccc(-c6scnc6C)cc5)C(C)(C)C)nn4)c3Cl)N2C(=O)[C@@H](NC(=O)c2cc3cc(C(=O)P(=O)(O)O)ccc3[nH]2)C1 [Compound 5, (2-(((5S,8S,10aR)-3-acetyl-8-(((S)-5-amino-1-(2-chloro-3-(3-(1-((S)-1-((2S,4R)-4-hydroxy-2-(((R)-1-(4-(4-methylthiazol-5-yl)phenyl)-2-morpholinoethyl)carbamoyl)pyrrolidin-1-yl)-3,3-dimethyl-1-oxobutan-2-yl)-1H-1,2,3-triazol-4-yl)propyl)phenoxy)-5-oxopentan-2-yl)carbamoyl)-6-oxodecahydropyrrolo[1,2-a][1,5]diazocin-5-yl)carbamoyl)-1H-indole-5-carbonyl)phosphonic acid] | > 80 | 10 to 100 | 10 to 100 | 10 to 100 | –
6 | CCS(=O)(=O)c1ccc(CNC(=O)[C@H](CCC(N)=O)NC(=O)[C@@H]2CC[C@@H]3CCN(C(=O)CCCCCc4cn([C@H](C(=O)N5C[C@H](O)C[C@H]5C(=O)N[C@@H](COCCOCCOC)c5ccc(-c6scnc6C)cc5)C(C)(C)C)nn4)C[C@H](NC(=O)c4cc5cc(C(=O)P(=O)(O)O)ccc5[nH]4)C(=O)N32)cc1 [Compound 40] | – | 10 to 100 | – | 10 to 100 | A (A (>=80%))
7 | COCCOCCOC[C@H](NC(=O)[C@@H]1C[C@@H](O)CN1C(=O)[C@@H](n1cc(CCCc2cccc(OC[C@H](CCC(N)=O)NC(=O)[C@@H]3CC[C@@H]4CCN(C(C)=O)C[C@H](NC(=O)c5cc6cc(C(=O)P(=O)(O)O)ccc6[nH]5)C(=O)N43)c2Cl)nn1)C(C)(C)C)c1ccc(-c2scnc2C)cc1 [Compound 41, (2-(((5S,8S,10aR)-3-acetyl-8-(((S)-5-amino-1-(2-chloro-3-(3-(1-((S)-1-((2S,4R)-4-hydroxy-2-(((R)-2-(2-(2-methoxyethoxy)ethoxy)-1-(4-(4-methylthiazol-5-yl)phenyl)ethyl)carbamoyl)pyrrolidin-1-yl)-3,3-dimethyl-1-oxobutan-2-yl)-1H-1,2,3-triazol-4-yl)propyl)phenoxy)-5-oxopentan-2-yl)carbamoyl)-6-oxodecahydropyrrolo[1,2-a][1,5]diazocin-5-yl)carbamoyl)-1H-indole-5-carbonyl)phosphonic acid] | – | 10 to 100 | – | 10 to 100 | A (A (>=80%))
8 | CCS(=O)(=O)c1ccc(CNC(=O)[C@H](CCC(N)=O)NC(=O)[C@@H]2CC[C@@H]3CCN(C(=O)CCCCCc4cn([C@H](C(=O)N5C[C@H](O)C[C@H]5C(=O)N[C@@H](COCCOCCOCCOC)c5ccc(-c6scnc6C)cc5)C(C)(C)C)nn4)C[C@H](NC(=O)c4cc5cc(C(=O)P(=O)(O)O)ccc5[nH]4)C(=O)N32)cc1 [Compound 45] | > 80 | 10 to 100 | – | 10 to 100 | –
